Patent US20250339567A1, “COMPOUNDS WITH IMPROVED PHARMACOKINETICS FOR IMAGING AND THERAPY OF CANCER” (priority 2019, published 2025)
Like-named read-outs stand apart in the source and are kept apart here.

What was measured:
[1] = Plasma studies: metabolic stability in vitro in human plasma (radio RP-HPLC); format: in vitro ADME
Method in brief: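 Radiotracer incubated in human or murine plasma at 37° C. immediately after labeling, for 72±2 h or 6±0.5 h. Proteins precipitated with ice-cold EtOH and MeCN and centrifuged. Supernatant analysed by radio RP-HPLC.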

[2] = n-Octanol-PBS distribution coefficient, log D7.4; format: physicochemical; conditions: 177Lu-labeled ligand; n-octanol/PBS pH 7.4
Protocol: Approximately 1 MBq of the labeled tracer was dissolved in 1 mL of a 1:1 mixture (v/v) of phosphate buffered saline (PBS, pH=7.4) and n-octanol in an Eppendorf tube. After vigorous mixing of the suspension for 3 min at room temperature, the vial was centrifuged at 9000 rpm for 5 min (Biofuge 15, Heraus Sepatech, Osterode, Germany) and 200 μL aliquots of both layers were measured in a γ-counter. The experiment was repeated at least four times.

[3] = test system: PC-3 tumor-bearing CB17-SCID mice; conditions: mouse, in vivo
Protocol: (§1) All animal experiments were conducted in accordance with general animal welfare regulations in Germany (German animal protection act, as amended on 18 May 2018, Art. 141 G v. 29.3.2017 | 626, approval no. ROB-55.2-2532.Vet_02-18-109) and the institutional guidelines for the care and use of animals. To establish tumor xenografts, PC-3 cells (5×10^6 cells per 200 μL) were suspended in a 1:1 mixture (v/v) of Dulbecco's modified eagle's medium/Ham's F-12 (DMEM/F-12) with Glutamax-I (1:1) and Cultrex® Basement Membrane Matrix Type 3 (Trevigen Inc., Gaithersburg, MD, USA) and inoculated subcutaneously onto the right shoulder of 6-10 weeks old female CB17-SCID mice (Charles River Laboratories International Inc., Sulzfeld, Germany). Mice were used for experiments when tumor volume was 125-500 mm^3 (2-3 weeks after inoculation).
Imaging studies were performed at a MILabs VECTor^4 small-animal SPECT/PET/OI/CT device (MILabs, Utrecht, the Netherlands). Data were reconstructed using the MILabs Rec software (version 10.02) and a pixel-based Similarity-Regulated Ordered Subsets Expectation Maximization (SROSEM) algorithm, followed by data analysis using the PMOD4.0 software (PMOD TECHNOLOGIES LLC, Zurich, Switzerland). […] Static images were recorded within 1 and 28 h p.i. with an acquisition time of 45-60 min using the HE-GP-RM collimator and a step-wise multi-planar bed movement.

GRPR = biological target: T1, GRPR (Homo sapiens, UniProt P30550); assay: Determination of GRPR affinity (IC50), competition with [D-3-[125I]I-Tyr6]MJ9 on PC-3 cells; format: binding
T1 construct: endogenous in cells; host or cells: PC-3 cells
Protocol: The reference ligand for IC50 studies ([D-3-[^125I]I-Tyr^6]MJ9) is prepared according to a previously published procedure. Briefly, 0.2 mg of [D-Tyr^6]MJ9 are dissolved in 20 μL Tracepur water and 280 μL TRIS buffer (25 mm TRIS HCl, 0.4 M NaCl, pH=7.9). After addition of the solution to a vial containing 150 μg Iodo-Gen® (1,3,4,6-Tetrachloro-3α,6α-diphenylglycouril, surface-bound), 5.0 μL (16 MBq) [^125I]Nal(74 TBq/mmol, 3.1 GBq/mL, 40 mM NaOH, Hartmann Analytic, Braunschweig, Germany) are added.
The GRPR-positive PC-3 cells are cultured in Dublecco modified Eagle medium/Nutrition Mixture F-12 with Glutamax-I (1:1) (Invitrigon), supplemented with 10% fetal calf serum and maintained at 37° C. in a humidified 5% CO2 atmosphere.
After removal of the culture medium, the cells are washed once with 500 μL of HBSS (Hank's balanced salt solution, Biochrom, Berlin, Germany, with addition of 1% bovine serum albumin (BSA)) and left in 200 μL HBSS (1% BSA) for 9 min at room temperature for equilibration. Next, 25 μL per well of solutions, containing either HBSS (1% BSA) as control or the respective ligand in increasing concentration (10^−10 M-10^−4 M in HBSS), are added with subsequent addition of 25 μL of [D-3-[^125I]I-Tyr^6]MJ9 (2.0 nM) in HBSS (1% BSA).
All experiments are performed in triplicate for each concentration. After 2 h incubation at room temperature, the experiment is terminated by removal of the medium and consecutive rinsing with 300 μL of HBSS. The media of both steps are combined in one fraction and represent the amount of free radiolabeled reference. Afterwards, the cells are lysed with 300 μL of 1 M NaOH for at least 15 min and united with the 300 μL NaOH of the following washing step. Quantification of bound and free radiolabeled reference is accomplished in a γ-counter.
IC50 determination for each ligand was repeated twice.

PC-3 cells = assay: Internalization into PC-3 cells; format: cell-based; conditions: c = 1 nM, 1 h, 37° C., corrected for non-specific binding (10^-3 M [natLu]RM2)
Protocol: For internalization studies, PC-3 cells are harvested 24±2 h before the experiment and seeded in 24-well plates (1.5×10^5 cells/well, 1 mL). Subsequent to the removal of the culture medium, the cells are washed once with 500 μL DMEM/F-12 (5% BSA) and left to equilibrate at 37° C. for at least 15 min in 200 μL DMEM/F-12 (5% BSA). […] Next, 25 μL of the ^125I/^177Lu-labeled GRPR ligand (10 nm) is added and the cells are incubated at 37° C. for 60 min.
The experiment is terminated by placing the 24-well plate on ice for 1 min and consecutive removal of the medium. Each well is rinsed with 300 μL ice-cold PBS and the fractions from these first two steps are combined, representing the amount of free radiolabeled reference. Removal of surface bound activity is accomplished by incubation of the cells with 300 μL of ice-cold Acid Wash solution (0.02 M NaOAc, pH=5.0) for 10 min at room temperature and rinsed again with 300 μL of ice-cold PBS. The internalized activity is determined by incubation of the cells in […] NaOH (1 M) and the combination with the fraction of a subsequent washing step with 300 μL NaOH (1 M).
Each experiment (control and blockade) is performed sixfold. Free, surface bound and internalized activity is quantified in a γ-counter. Data is corrected for non-specific internalization.

[4] = test system: PC-3 tumor-bearing CB17-SCID mice; assay: Biodistribution in PC-3 tumor-bearing CB17-SCID mice; format: in vivo; conditions: 177Lu-labeled, 24 h p.i.
Protocol: as §1
Approximately 1-5 MBq ([…]) of the radiolabeled GRPR antagonists were injected into the tail vein of PC-3 tumor-bearing mice and sacrificed at 1, 4 or 24 h p.i. (n=4). Selected organs were removed, weighted and measured in a γ-counter (Perkin Elmer, Waltham, MA, USA).

T1 sequence (P30550 whole entry): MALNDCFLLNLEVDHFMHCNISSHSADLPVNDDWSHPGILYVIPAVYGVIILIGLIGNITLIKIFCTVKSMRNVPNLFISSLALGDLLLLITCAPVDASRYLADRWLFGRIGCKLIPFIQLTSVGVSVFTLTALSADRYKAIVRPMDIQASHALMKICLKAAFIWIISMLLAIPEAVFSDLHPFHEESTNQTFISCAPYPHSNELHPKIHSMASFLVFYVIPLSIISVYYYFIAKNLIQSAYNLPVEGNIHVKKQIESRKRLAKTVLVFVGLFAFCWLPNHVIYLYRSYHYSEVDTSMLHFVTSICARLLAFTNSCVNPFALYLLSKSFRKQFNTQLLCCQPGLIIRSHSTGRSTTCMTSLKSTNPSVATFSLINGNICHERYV

| Amount of intact tracer after incubation in human plasma for 72 ± 2 h (n = 2) [1] | metabolite, first-eluting peak in chromatogram [1] [%] | metabolite, second peak in chromatogram [1] [%] | remaining intact tracer in chromatogram ([1]; human, plasma, 2 h) [%] | clearance of background activity in imaging [3] | SMILES | log D7.4 ± SD (n = 8) [2] | IC50 (GRPR; IC50 [nM] ± SD (n = 3), ^177Lu-labeled, Table 1C, GRPR affinity) [nM] | IC50 (GRPR; IC50 ± SD (n = 3), Table 3, [D-3-[125I]I-Tyr6]MJ9 (c = 0.2 nM), 2 h, r.t., HBSS + 1% BSA) [nM] | Amount of intact tracer after incubation in human plasma for 72 ± 2 h (n = 2) ([1]; Table 1C, 177Lu-labeled, 37° C., 72 ± 2 h, in % (unit assumed)) | amount of intact tracer (in vitro stability), mean ± SD ([1]; human plasma, 37° C., 72±2 h) [%] | Specific internalization (mean ± SD, n = 6) (PC-3 cells) | pancreas retention ([4]; 100 pmol, FIG. 11) | tumor retention ([4]; 100 pmol, FIGS. 11, 18) | tumor-to-background ratios (tumor-to-blood, tumor-to-muscle) ([4]; FIG. 12) |
| --- | --- | --- | --- | --- | --- | --- | --- | --- | --- | --- | --- | --- | --- | --- |
| 77.6 ± 10.1 | 2 | 5 | 92 | cleared less rapid | CC(C)C[C@H](NC(=O)C[C@H](O)[C@H](CC(C)C)NC(=O)[C@H](Cc1c[nH]cn1)NC(=O)CNC(=O)[C@@H](NC(=O)[C@H](C)NC(=O)[C@](C)(Cc1c[nH]c2ccccc12)NC(=O)[C@H](CCC(N)=O)NC(=O)[C@@H](Cc1ccccc1)NC(=O)CN1CCC(NC(=O)CN2CCN(CC(=O)O)CCN(CC(=O)O)CCN(CC(=O)O)CC2)CC1)C(C)C)C(N)=O [AMTG] | −2.28 ± 0.06 | – | – | – | – | – | – | – | – |
| – | – | – | – | – | CC(C)CC(CC(C)C)NC(=O)[C@H](Cc1cnc[nH]1)NC(=O)CNC(=O)[C@@H](NC(=O)[C@H](C)NC(=O)[C@H](Cc1c[nH]c2ccccc12)NC(=O)[C@H](CCC(N)=O)NC(=O)[C@@H](Cc1ccccc1)NC(=O)COCC(=O)Nc1ccc(CNC(=O)CN2CCN(CC(=O)O)CCN(CC(=O)O)CCN(CC(=O)O)CC2)cc1)C(C)C [NeoBOMB1, reference compound] | −0.57 ± 0.03 | 4.2 ± 0.1 | 4.22 ± 0.14 | 60.8 ± 1.2 | 60.8±1.2 | 13.91 ± 0.64 % of the used activity | high pancreas retention | high tumor retention | minor tumor-to-background ratios than the reference |
